Experimental data reported in US8071575B2, “Methods and compounds for the targeted delivery of agents to bone for interaction therewith” (priority 2007, dated 2011).

Experiments:
[1] = Body weight of OVX rats during treatment; format: in vivo, Sprague-Dawley female rats; details: oral 3000 μg/kg, three times per week for 6 weeks
Protocol: (§1) Animals. Six month old, bilaterally ovariectomized (OVX) or sham operated Sprague-Dawley female rats (Harlan Laboratories, Indianapolis, Ind.) were maintained at the University of Louisville Research Resources Center at 22° C. with a 12-h light/dark cycle and ad libitum access to tap water and rodent chow (Purina Laboratory Rodent Diet 5001). All animal procedures were approved by the Institutional Animal Care and Use Committee, which is certified by the American Association for Accreditation of Laboratory Animal Care.
In vivo experiments were conducted in order to investigate the efficacy of compounds of the presently-disclosed subject matter. In all of the experiments, OVX and sham operated rats were randomly divided into groups of 5-7 animals. In all of the studies experimental groups included: i) Sham-operated control (euthanized six weeks post surgery as a pretreatment control), ii) OVX control (euthanized six weeks post surgery as a pretreatment control), iii) Sham control receiving vehicle, iv) OVX control receiving vehicle, v) OVX receiving 17-ethinyl estradiol (equimolar concentration with a selected test compound), vi) OVX receiving alendronate (1.6 mg/kg), and vii) OVX receiving parathyroid hormone 1-34 (PTH) ([…]). 17-ethinyl estradiol (17 EE) is a free estrogenic agent known to be orally active, and can serve as an example of an anti-catabolic agent. […]

OVX rats [2] = test: Uterine mass and uterine mass to body weight ratio in OVX rats; format: in vivo, Sprague-Dawley female rats; details: OVX rats, oral 3000 μg/kg; compared to animals treated with 17-ethinyl estradiol
Protocol: as §1
(§2) In vivo experiments were conducted in order to investigate the efficacy of compounds of the presently-disclosed subject matter. In all of the experiments, OVX and sham operated rats were randomly divided into groups of 5-7 animals. In all of the studies experimental groups included: i) Sham-operated control (euthanized six weeks post surgery as a pretreatment control), ii) OVX control (euthanized six weeks post surgery as a pretreatment control), iii) Sham control receiving vehicle, iv) OVX control receiving vehicle, v) OVX receiving 17-ethinyl estradiol (equimolar concentration with a selected test compound), vi) OVX receiving alendronate (1.6 mg/kg), and vii) OVX receiving parathyroid hormone 1-34 (PTH) ([…]). 17-ethinyl estradiol (17 EE) is a free estrogenic agent known to be orally active, and can serve as an example of an anti-catabolic agent. Alendronate (Alen) is a bisphosphonate that is currently used to treat osteoporosis (e.g., Fosamax®, Merck & Co., Inc,), and can serve as an example of an anti-catabolic agent. Parathyroid hormone 1-34 (PTH) is an agent that can serve as an example of an anabolic agent. All compounds and vehicle (1% DMSO in corn oil) were administered three times per week orally by gavage except for PTH which was administered via a subcutaneous injection in a volume of 0.5 ml/kg body mass thrice per week. Compound administration was initiated 6 weeks following surgery and lasted for 6 weeks (18 doses total).
(§3) Compounds of the presently-disclosed subject matter were orally administered to OVX rats at various doses. As indicated above all BTE's were administered three times per week for 6 weeks.
(§4) Following 6 weeks of treatment, blood was obtained from each animal via cardiac puncture following an overnight fast and animals were subsequently euthanized via carbon dioxide asphyxiation. Blood was centrifuged immediately and the obtained serum samples were aliquoted and stored at −70° C. prior to analysis. Uteri were removed and fresh weights were obtained. Uterine masses were normalized to body mass at the end of the experiment. The left and right femora and left and right tibiae were subsequently collected from each animal, cleaned of soft tissue, and stored in saline at 4° C. prior to analysis.
Uterine Mass and Body Weight. […] Uterine mass can be used to as a measure of estrogenic effect occurring in a tissue outside the bone in response to treatment with a test compound or composition. Generally, a lower uterine mass can be associated with a decreased risk of adverse side effects associated with the test compound or composition. A ratio of uterine mass to body weight can be used to correct for any increase in uterine size attributable to the relative size of the individual animal. Body weight and/or uterine mass also serve as an indirect measures of toxicity of a test compound.

OVX rats [3] = test: Quantitative determination of lipid metabolism (total cholesterol, HDL, LDL) in rat serum; format: in vivo, Sprague-Dawley female rats
Protocol: as §1, §2, §4
Quantitative Determination of Lipid Metabolism (Total Cholesterol HDL, and LDL) in Rat Serum. Total cholesterol, high-density lipoprotein (HDL), and low-density lipoprotein (LDL) were quantitatively determined in the serum of rats in order to evaluate the extraosseous effects of estrogen treatment on lipid metabolism. Commercially available kits from Wako Diagnostics (Richmond, Va.) were used for the evaluations as recommended by the manufacturer.

OVX rats [4] = test: Bone mechanical competence indentation test; format: in vivo, Sprague-Dawley female rats; details: present-tense example, no data or figure
Protocol: as §1, §2, §3, §4
Bone Mechanical Competence Indentation Test. After sacrifice, the left tibiae were trimmed to expose the cancellous bone of the proximal tibial metaphysis and an indentation test was performed by advancing a flat-tipped cylindrical post (1.5 mm diameter) axially into the cut surface to measure the compressive strength of the cancellous bone structure.

ICR Swiss mice = test: Stimulation of periosteal bone formation in a mouse calvarial injection model; format: in vivo; details: present-tense example, no data or figure
Protocol: Stimulation of Periosteal Bone Formation in a Mouse Calvarial Injection Model. The anabolic (bone formation) of compounds of the presently-disclosed subject matter are evaluated in the mouse calvarial injection model. Briefly, 4-week-old ICR Swiss mice are injected subcutaneously over the surface of the calvariae with compounds of the presently-disclosed subject matter at concentrations of 0, 1, 3, and 10 mg/kg/day for 5 days (twice a day). Microtubule inhibitor TN-16 (5 mg/kg/day for 2 days, twice a day) are used as a positive control. Mice are sacrificed two weeks after the injections are completed. Dissected calvarial samples are fixed in 10% phosphate-buffered formalin for 2 days, decalcified in 10% EDTA for 2 weeks and then embedded in paraffin. Histological sections are cut and stained with H&E and orange G. New woven bone formation (new bone area) is quantified by histomorphometry using the OsteoMeasure system (OsteoMetrics Inc., Atlanta, Ga.).

OVX rats [5] = test: Rat Osteocalcin EIA (serum); format: in vivo, Sprague-Dawley female rats; details: 100 or 1000 μg/kg doses
Protocol: as §1
In vivo experiments were conducted in order to investigate the efficacy of compounds of the presently-disclosed subject matter. In all of the experiments, OVX and sham operated rats were randomly divided into groups of 5-7 animals. […]
Rat Osteocalcin EIA. […] Rat serum osteocalcin levels were measured using the Rat Osteocalcin EIA Kit from Biomedical Technologies, Incorporated (Stoughton, Mass.) as recommended by the manufacturer.

## COc1ccc(NC(=O)CCC(=O)OC2CCC3C4CCC5=CC(=O)CCC5(C)C4CCC23C)c(O)c1C(N)=O (stereo not shown) [Formula 33]
[1]
  body weight: lower body weights as compared to the OVX animals
OVX rats [2]
  ratio of uterine mass to body weight: lower
  uterine mass: lower
OVX rats [3]; present-tense example, no data or figure
  lipid metabolism (total cholesterol, HDL, LDL in serum): limited or no effect
OVX rats [4]
  bone strength (indentation test): increase bone strength
ICR Swiss mice
  new bone area (calvarial injection model): increase new bone area

## COc1ccc(NC(=O)COCCOCCNC(=O)CCOC2CCC3C4CCc5cc(O)ccc5C4CCC23C)c(O)c1C(N)=O (stereo not shown) [Formula 123]
OVX rats [3]; rat, in vivo
  lipid metabolism (total cholesterol, HDL, LDL in serum): limited or no effect
OVX rats [4]
  bone strength (indentation test): increase bone strength
OVX rats [5]
  serum osteocalcin levels: stimulates osteocalcin
ICR Swiss mice
  new bone area (calvarial injection model): affect new bone area
